Test: xn = mol fraction of the nth substance listed
Details: 100 kPa, Liquid; for viscosity: Falling or rolling sphere viscometry; for mass density: Vibrating tube method

OCC1CCCCC1 [cyclohexylmethanol] + CC1CCCCC1
Details	mass density [kg/m3]	viscosity [mPa·s]
293.15 K, x2 = 0.0998	914.04	22.56
293.15 K, x2 = 0.1996	898.07	12.82
293.15 K, x2 = 0.2999	881.82	7.902
293.15 K, x2 = 0.3998	865.56	4.953
293.15 K, x2 = 0.5004	848.97	3.225
293.15 K, x2 = 0.6007	832.61	2.164
293.15 K, x2 = 0.6997	816.64	1.555
293.15 K, x2 = 0.7984	800.82	1.159
293.15 K, x2 = 0.9012	784.55	0.891
298.15 K, x2 = 0.0998	910.42	17.67
298.15 K, x2 = 0.1996	894.34	10.28
298.15 K, x2 = 0.2999	877.99	6.5
298.15 K, x2 = 0.3998	861.58	4.176
298.15 K, x2 = 0.5004	844.91	2.832
298.15 K, x2 = 0.6007	828.51	1.92
298.15 K, x2 = 0.6997	812.48	1.407
298.15 K, x2 = 0.7984	796.58	1.065
298.15 K, x2 = 0.9012	780.24	0.817
303.15 K, x2 = 0.0998	906.77	14.09
303.15 K, x2 = 0.1996	890.57	8.368
303.15 K, x2 = 0.2999	874.13	5.421
303.15 K, x2 = 0.3998	857.62	3.567
303.15 K, x2 = 0.5004	840.88	2.446
303.15 K, x2 = 0.6007	824.38	1.715
303.15 K, x2 = 0.6997	808.29	1.279
303.15 K, x2 = 0.7984	792.32	0.98
303.15 K, x2 = 0.9012	775.91	0.769
308.15 K, x2 = 0.0998	903.08	11.37
308.15 K, x2 = 0.1996	886.77	6.888
308.15 K, x2 = 0.2999	870.24	4.567
308.15 K, x2 = 0.3998	853.63	3.075
308.15 K, x2 = 0.5004	836.92	2.155
308.15 K, x2 = 0.6007	820.24	1.542
308.15 K, x2 = 0.6997	804.07	1.167
308.15 K, x2 = 0.7984	788.03	0.905
308.15 K, x2 = 0.9012	771.56	0.718
313.15 K, x2 = 0.0998	899.36	9.257
313.15 K, x2 = 0.1996	882.93	5.729
313.15 K, x2 = 0.2999	866.31	3.884
313.15 K, x2 = 0.3998	849.61	2.672
313.15 K, x2 = 0.5004	832.82	1.912
313.15 K, x2 = 0.6007	816.06	1.393
313.15 K, x2 = 0.6997	799.82	1.069
313.15 K, x2 = 0.7984	783.71	0.839
313.15 K, x2 = 0.9012	767.17	0.672
318.15 K, x2 = 0.0998	895.6	7.638
318.15 K, x2 = 0.1996	879.05	4.813
318.15 K, x2 = 0.2999	862.35	3.332
318.15 K, x2 = 0.3998	845.56	2.34
318.15 K, x2 = 0.5004	828.69	1.706
318.15 K, x2 = 0.6007	811.86	1.264
318.15 K, x2 = 0.6997	795.54	0.983
318.15 K, x2 = 0.7984	779.36	0.779
318.15 K, x2 = 0.9012	762.76	0.631
323.15 K, x2 = 0.0998	891.81	6.35
323.15 K, x2 = 0.1996	875.15	4.082
323.15 K, x2 = 0.2999	858.35	2.882
323.15 K, x2 = 0.3998	841.47	2.064
323.15 K, x2 = 0.5004	824.52	1.539
323.15 K, x2 = 0.6007	807.62	1.152
323.15 K, x2 = 0.6997	791.23	0.907
323.15 K, x2 = 0.7984	774.99	0.726
323.15 K, x2 = 0.9012	758.33	0.594
328.15 K, x2 = 0.0998	887.97	5.322
328.15 K, x2 = 0.1996	871.24	3.491
328.15 K, x2 = 0.2999	854.31	2.512
328.15 K, x2 = 0.3998	837.35	1.831
328.15 K, x2 = 0.5004	820.32	1.379
328.15 K, x2 = 0.6007	803.35	1.054
328.15 K, x2 = 0.6997	786.89	0.839
328.15 K, x2 = 0.7984	770.58	0.679
328.15 K, x2 = 0.9012	753.86	0.561
333.15 K, x2 = 0.0998	884.09	4.526
333.15 K, x2 = 0.1996	867.26	3.011
333.15 K, x2 = 0.2999	850.23	2.204
333.15 K, x2 = 0.3998	833.14	1.634
333.15 K, x2 = 0.5004	816.09	1.25
333.15 K, x2 = 0.6007	799.05	0.967
333.15 K, x2 = 0.6997	782.43	0.778
333.15 K, x2 = 0.7984	766.13	0.637
333.15 K, x2 = 0.9012	749.37	0.531

From the NIST ThermoML archive (doi:10.1021/acs.jced.6b00688)
